Test results: patent US20250231185A1, “Coronavirus T Cell Epitopes, Megapools and Uses Thereof” (La Jolla Institute for Immunology, priority 2021, published 2025)

System: CD4+ T cells
Experiment: Meta-analysis of published SARS-CoV-2 CD4 T cell epitope data curated in the IEDB (25 studies)
Type: cell-based, human
[1] = CD4RE megapool peptides (non-spike SARS-CoV-2 CD4 epitopes), dominant = recognized by 3 or more donors/different studies
[2] = CD4R (D) Megapool, non-spike antigens, dominant = recognized in 3 or more donors/studies

2661 (FKDQVILLNKHIDAY) [compound 2661]
Dominant [1]: Yes (more dominant epitopes are defined by being recognized by 3 or more donors/different studies)

2616 (FYVYSRVKNLNSSRV) [compound 2616]
Dominant [1]: Yes (more dominant epitopes are defined by being recognized by 3 or more donors/different studies)

2624 (GAVILRGHLRIAGHHLGR) [compound 2624]
Dominant [1]: Yes (more dominant epitopes are defined by being recognized by 3 or more donors/different studies)

2329 (GMEVTPSGTWLTYTGAIKLD) [compound 2329]
Dominant [2]: Yes (more dominant epitopes are defined by being recognized by 3 or more donors/different studies)

2310 (DDQIGYYRRATRRIR) [compound 2310]
Dominant [2]: Yes (more dominant epitopes are defined by being recognized by 3 or more donors/different studies)

2649 (LLLLDRLNQLESKMS) [compound 2649]
Dominant [1]: Yes (more dominant epitopes are defined by being recognized by 3 or more donors/different studies)

2308 (ASWFTALTQHGKEDL) [compound 2308]
Dominant [2]: Yes (more dominant epitopes are defined by being recognized by 3 or more donors/different studies)

2651 (KKPRQKRTATKAYNV) [compound 2651]
Dominant [1]: Yes (more dominant epitopes are defined by being recognized by 3 or more donors/different studies)

2620 (CLVGLMWLSYFIASF) [compound 2620]
Dominant [1]: Yes (more dominant epitopes are defined by being recognized by 3 or more donors/different studies)

2290 (YRINWITGGIAIAMA) [compound 2290]
Dominant [2]: Yes (more dominant epitopes are defined by being recognized by 3 or more donors/different studies)

2317 (AIVLQLPQGTTLPKG) [compound 2317]
Dominant [2]: Yes (more dominant epitopes are defined by being recognized by 3 or more donors/different studies)

2662 (ILLNKHIDAYKTFPP) [compound 2662]
Dominant [1]: Yes (more dominant epitopes are defined by being recognized by 3 or more donors/different studies)

2647 (AGNGGDAALALLLLD) [compound 2647]
Dominant [1]: Yes (more dominant epitopes are defined by being recognized by 3 or more donors/different studies)

2634 (SYYKLGASQRVAGDS) [compound 2634]
Dominant [1]: Yes (more dominant epitopes are defined by being recognized by 3 or more donors/different studies)

2655 (YKHWPQIAQFAPSAS) [compound 2655]
Dominant [1]: Yes (more dominant epitopes are defined by being recognized by 3 or more donors/different studies)

2305 (SYYKLGASQRVAGDS) [compound 2305]
Dominant [2]: Yes (more dominant epitopes are defined by being recognized by 3 or more donors/different studies)

2658 (GMEVTPSGTWLTYTGAIKLD) [compound 2658]
Dominant [1]: Yes (more dominant epitopes are defined by being recognized by 3 or more donors/different studies)

2639 (DDQIGYYRRATRRIR) [compound 2639]
Dominant [1]: Yes (more dominant epitopes are defined by being recognized by 3 or more donors/different studies)

2325 (LIRQGTDYKHWPQIA) [compound 2325]
Dominant [2]: Yes (more dominant epitopes are defined by being recognized by 3 or more donors/different studies)

2327 (WPQIAQFAPSASAFF) [compound 2327]
Dominant [2]: Yes (more dominant epitopes are defined by being recognized by 3 or more donors/different studies)

2296 (LRGHLRIAGHHLGRC) [compound 2296]
Dominant [2]: Yes (more dominant epitopes are defined by being recognized by 3 or more donors/different studies)

2320 (LLLLDRLNQLESKMS) [compound 2320]
Dominant [2]: Yes (more dominant epitopes are defined by being recognized by 3 or more donors/different studies)

2625 (LRGHLRIAGHHLGRC) [compound 2625]
Dominant [1]: Yes (more dominant epitopes are defined by being recognized by 3 or more donors/different studies)

2306 (LGASQRVAGDSGFAA) [compound 2306]
Dominant [2]: Yes (more dominant epitopes are defined by being recognized by 3 or more donors/different studies)
